According to US20210038753A1, “BIOLOGICAL STERILIZATION INDICATOR WITH STERILANT RESISTANCE MODULATOR” (3M INNOVATIVE PROPERTIES COMPANY, priority 2014, published 2021):

How the values were obtained:
[1] = test system: Geobacillus stearothermophilus spores; experiment: Resistance of self-contained biological indicators to hydrogen peroxide sterilization, growth readout by pH colour change (GRO+); type: cell-based
Description: (§1) PET film (.09 mm thick) was coated with colloidal silica as described in International Publication No. WO2014/189716, which is incorporated herein by reference in its entirety. […] Separate aqueous spore coating solutions were prepared as described in Example 1 with the amino acids shown in table 4 present in the coating solutions. Two microliter aliquots (containing at least 10^6 spores) of the respective spore coating solutions were deposited onto the silica-coated PET film, forming a series of spaced-apart spots on the film. The spore coated films were dried in a 60° C. incubator for 12 minutes. Circular discs (hereinafter, “coated carriers”) of the PET film, each disc including one of the dried spots, were punched out and were used to assemble self-contained biological indicators (BI) similar to that shown in FIG. 1 of International Publication No. WO2014/189716. The coated carriers described above were placed into the “spore carrier 135” shown in FIG. 1 of International Publication No. WO2014/189716. Each self-contained BI comprised a polycarbonate outer container, a breaker, a cap, and a cap filter. Disposed inside the outer container were a coated carrier along with an ampoule media containing the nutrient medium from 3M ATTEST 1292 Rapid Readout Biological Indicators plus 5g/L methionine (as described in Example 1).
(§2) The self-contained biological indicators with different concentrations of additives (Table 4) were exposed to hydrogen peroxide sterilization in STERRAD NX sterilizer. The sterilization processes were run by manually injecting 1.0 ml of 59% hydrogen peroxide per load, unless specified otherwise. The exposure time was varied to determine the resistance profile of self-contained BIs with different additive formulations. The BIs were activated by pressing down the cap to break the media ampoule. The activated BIs were placed in a bench-top fluorimeter (3M Company, St. Paul, Minn.) to detect fluorescence.
(§3) A self-contained BI that is not completely inactivated (i.e., not all of the spores are killed by the sterilization process) will resume cellular functions upon activation of the BI. The production of glucosidase enzyme by surviving spores is an indication that at least one of the spores have not been inactivated (killed) by the sterilization process. The glucosidase enzyme cleaves the 4-methylumbelliferyl-glucoside (MUG) releasing the fluorescent methyl umbelliferone, which is detected using a bench-top fluorimeter. Growth and proliferation of spores in the self-contained biological indicator can also be detected by a pH change, which may be detected by a color change of the pH indicator in the growth medium.
(§4) Self-contained biological indicators were prepared (with various additives listed in table 4) as described above in this Example. For each additive tested, a lower range and a higher range was used as a preliminary screen to identify additives modulated the resistance of the spores to the sterilant. Five self-contained BIs representing each condition were exposed to hydrogen peroxide sterilization in STERRAD NX sterilizer. The sterilization processes used a constant injection volume (1.0 ml of 59% hydrogen peroxide) and various times (e.g., 20 seconds to 7 minutes) of exposure to the hydrogen peroxide. The self-contained BIs were activated after exposure to the sterilization process and were monitored for fluorescence using a bench-top fluorimeter) and pH based color change (visually). […]
(§5) Self-contained biological indicators (with various additives listed in table 5) were prepared as described in Example 2. The self-contained biological indicators were exposed to hydrogen peroxide in a STERRAD NX sterilizer as described in Example 2. The self-contained BIs were activated after exposure to the sterilization process and were monitored for fluorescence using a bench-top fluorimeter and pH based color change (visually).

[2] = test system: Geobacillus stearothermophilus spores; experiment: Resistance of self-contained biological indicators to hydrogen peroxide sterilization, glucosidase enzyme activity fluorescence readout (ENZ+); type: cell-based
Description: as §1, §2, §3, §4, §5

[3] = Table 4, modulator 0.01 weight percent in spore coating solution, H2O2 exposure 30 sec.
[4] = Table 4, modulator 0.01 weight percent in spore coating solution, H2O2 exposure 60 sec.
[5] = Table 4, modulator 0.01 weight percent in spore coating solution, H2O2 exposure 90 sec.
[6] = Table 4, modulator 0.01 weight percent in spore coating solution, H2O2 exposure 3 min.
[7] = Table 4, modulator 0.01 weight percent in spore coating solution, H2O2 exposure 7 min.
[8] = Table 4, modulator 0.1 weight percent in spore coating solution, H2O2 exposure 30 sec.
[9] = Table 4, modulator 0.1 weight percent in spore coating solution, H2O2 exposure 60 sec.
[10] = Table 4, modulator 0.1 weight percent in spore coating solution, H2O2 exposure 90 sec.
[11] = Table 4, modulator 0.1 weight percent in spore coating solution, H2O2 exposure 3 min.
[12] = Table 4, modulator 0.1 weight percent in spore coating solution, H2O2 exposure 7 min.
[13] = Table 5, modulator 0.05 weight percent in spore coating solution, H2O2 exposure 20 sec.
[14] = Table 5, modulator 0.05 weight percent in spore coating solution, H2O2 exposure 30 sec.
[15] = Table 5, modulator 0.05 weight percent in spore coating solution, H2O2 exposure 60 sec.
[16] = Table 5, modulator 0.05 weight percent in spore coating solution, H2O2 exposure 90 sec.
[17] = Table 5, modulator 0.05 weight percent in spore coating solution, H2O2 exposure 3 min.
[18] = Table 5, modulator 0.05 weight percent in spore coating solution, H2O2 exposure 7 min.
[19] = Table 5, modulator 0.1 weight percent in spore coating solution, H2O2 exposure 20 sec.
[20] = Table 5, modulator 0.1 weight percent in spore coating solution, H2O2 exposure 30 sec.
[21] = Table 5, modulator 0.1 weight percent in spore coating solution, H2O2 exposure 60 sec.
[22] = Table 5, modulator 0.1 weight percent in spore coating solution, H2O2 exposure 90 sec.
[23] = Table 5, modulator 0.1 weight percent in spore coating solution, H2O2 exposure 3 min.
[24] = Table 5, modulator 0.1 weight percent in spore coating solution, H2O2 exposure 7 min.
[25] = Table 5, modulator 0.2 weight percent in spore coating solution, H2O2 exposure 20 sec.
[26] = Table 5, modulator 0.2 weight percent in spore coating solution, H2O2 exposure 30 sec.
[27] = Table 5, modulator 0.2 weight percent in spore coating solution, H2O2 exposure 60 sec.
[28] = Table 5, modulator 0.2 weight percent in spore coating solution, H2O2 exposure 90 sec.
[29] = Table 5, modulator 0.2 weight percent in spore coating solution, H2O2 exposure 3 min.
[30] = Table 5, modulator 0.2 weight percent in spore coating solution, H2O2 exposure 7 min.
[31] = Table 5, modulator 0.4 weight percent in spore coating solution, H2O2 exposure 20 sec.
[32] = Table 5, modulator 0.4 weight percent in spore coating solution, H2O2 exposure 30 sec.
[33] = Table 5, modulator 0.4 weight percent in spore coating solution, H2O2 exposure 60 sec.
[34] = Table 5, modulator 0.4 weight percent in spore coating solution, H2O2 exposure 90 sec.
[35] = Table 5, modulator 0.4 weight percent in spore coating solution, H2O2 exposure 3 min.
[36] = Table 5, modulator 0.4 weight percent in spore coating solution, H2O2 exposure 7 min.
[37] = Table 5, modulator 0.8 weight percent in spore coating solution, H2O2 exposure 20 sec.
[38] = Table 5, modulator 0.8 weight percent in spore coating solution, H2O2 exposure 30 sec.
[39] = Table 5, modulator 0.8 weight percent in spore coating solution, H2O2 exposure 60 sec.
[40] = Table 5, modulator 0.8 weight percent in spore coating solution, H2O2 exposure 90 sec.
[41] = Table 5, modulator 0.8 weight percent in spore coating solution, H2O2 exposure 3 min.
[42] = Table 5, modulator 0.8 weight percent in spore coating solution, H2O2 exposure 7 min.

Compound: N=C(N)NCCC[C@H](N)C(=O)O [L-arginine]
- sensitivity of the biological indicator to the sterilization process relative to the control with no additives ([1]; Example 2 / Comparative Example 1 (Table 4), fluorescence and growth readouts): increased sensitivity (decreased resistance)
- sensitivity of the spores to the damaging/lethal effects of the sterilization process relative to the control with no additives ([1]; Example 3 (Table 5), fluorescence and growth readouts): increased sensitivity
- percentage of self-contained biological indicators positive for growth (GRO+) [1, 3]: 100%
- percentage of self-contained biological indicators positive for growth (GRO+) [1, 4]: 0%
- percentage of self-contained biological indicators positive for growth (GRO+) [1, 5]: 0%
- percentage of self-contained biological indicators positive for growth (GRO+) [1, 6]: 0%
- percentage of self-contained biological indicators positive for growth (GRO+) [1, 7]: 0%
- percentage of self-contained biological indicators positive for growth (GRO+) [1, 8]: 40%
- percentage of self-contained biological indicators positive for growth (GRO+) [1, 9]: 0%
- percentage of self-contained biological indicators positive for growth (GRO+) [1, 10]: 0%
- percentage of self-contained biological indicators positive for growth (GRO+) [1, 11]: 0%
- percentage of self-contained biological indicators positive for growth (GRO+) [1, 12]: 0%
- percentage of self-contained biological indicators positive for growth (GRO+) [1, 13]: 100%
- percentage of self-contained biological indicators positive for growth (GRO+) [1, 14]: 100%
- percentage of self-contained biological indicators positive for growth (GRO+) [1, 15]: 0%
- percentage of self-contained biological indicators positive for growth (GRO+) [1, 16]: 0%
- percentage of self-contained biological indicators positive for growth (GRO+) [1, 17]: 0%
- percentage of self-contained biological indicators positive for growth (GRO+) [1, 18]: 0%
- percentage of self-contained biological indicators positive for growth (GRO+) [1, 19]: 100%
- percentage of self-contained biological indicators positive for growth (GRO+) [1, 20]: 100%
- percentage of self-contained biological indicators positive for growth (GRO+) [1, 21]: 0%
- percentage of self-contained biological indicators positive for growth (GRO+) [1, 22]: 0%
- percentage of self-contained biological indicators positive for growth (GRO+) [1, 23]: 0%
- percentage of self-contained biological indicators positive for growth (GRO+) [1, 24]: 0%
- percentage of self-contained biological indicators positive for growth (GRO+) [1, 25]: 100%
- percentage of self-contained biological indicators positive for growth (GRO+) [1, 26]: 100%
- percentage of self-contained biological indicators positive for growth (GRO+) [1, 27]: 0%
- percentage of self-contained biological indicators positive for growth (GRO+) [1, 28]: 0%
- percentage of self-contained biological indicators positive for growth (GRO+) [1, 29]: 0%
- percentage of self-contained biological indicators positive for growth (GRO+) [1, 30]: 0%
- percentage of self-contained biological indicators positive for growth (GRO+) [1, 31]: 67%
- percentage of self-contained biological indicators positive for growth (GRO+) [1, 32]: 33%
- percentage of self-contained biological indicators positive for growth (GRO+) [1, 33]: 0%
- percentage of self-contained biological indicators positive for growth (GRO+) [1, 34]: 0%
- percentage of self-contained biological indicators positive for growth (GRO+) [1, 35]: 0%
- percentage of self-contained biological indicators positive for growth (GRO+) [1, 36]: 0%
- percentage of self-contained biological indicators positive for growth (GRO+) [1, 37]: 33%
- percentage of self-contained biological indicators positive for growth (GRO+) [1, 38]: 0%
- percentage of self-contained biological indicators positive for growth (GRO+) [1, 39]: 0%
- percentage of self-contained biological indicators positive for growth (GRO+) [1, 40]: 0%
- percentage of self-contained biological indicators positive for growth (GRO+) [1, 41]: 0%
- percentage of self-contained biological indicators positive for growth (GRO+) [1, 42]: 0%
- percentage of self-contained biological indicators positive for glucosidase enzyme activity (ENZ+) [2, 3]: 80%
- percentage of self-contained biological indicators positive for glucosidase enzyme activity (ENZ+) [2, 4]: 60%
- percentage of self-contained biological indicators positive for glucosidase enzyme activity (ENZ+) [2, 5]: 0%
- percentage of self-contained biological indicators positive for glucosidase enzyme activity (ENZ+) [2, 6]: 0%
- percentage of self-contained biological indicators positive for glucosidase enzyme activity (ENZ+) [2, 7]: 0%
- percentage of self-contained biological indicators positive for glucosidase enzyme activity (ENZ+) [2, 8]: 80%
- percentage of self-contained biological indicators positive for glucosidase enzyme activity (ENZ+) [2, 9]: 0%
- percentage of self-contained biological indicators positive for glucosidase enzyme activity (ENZ+) [2, 10]: 0%
- percentage of self-contained biological indicators positive for glucosidase enzyme activity (ENZ+) [2, 11]: 0%
- percentage of self-contained biological indicators positive for glucosidase enzyme activity (ENZ+) [2, 12]: 0%
- percentage of self-contained biological indicators positive for glucosidase enzyme activity (ENZ+) [2, 13]: 100%
- percentage of self-contained biological indicators positive for glucosidase enzyme activity (ENZ+) [2, 14]: 100%
- percentage of self-contained biological indicators positive for glucosidase enzyme activity (ENZ+) [2, 15]: 67%
- percentage of self-contained biological indicators positive for glucosidase enzyme activity (ENZ+) [2, 16]: 0%
- percentage of self-contained biological indicators positive for glucosidase enzyme activity (ENZ+) [2, 17]: 0%
- percentage of self-contained biological indicators positive for glucosidase enzyme activity (ENZ+) [2, 18]: 0%
- percentage of self-contained biological indicators positive for glucosidase enzyme activity (ENZ+) [2, 19]: 100%
- percentage of self-contained biological indicators positive for glucosidase enzyme activity (ENZ+) [2, 20]: 100%
- percentage of self-contained biological indicators positive for glucosidase enzyme activity (ENZ+) [2, 21]: 33%
- percentage of self-contained biological indicators positive for glucosidase enzyme activity (ENZ+) [2, 22]: 0%
- percentage of self-contained biological indicators positive for glucosidase enzyme activity (ENZ+) [2, 23]: 0%
- percentage of self-contained biological indicators positive for glucosidase enzyme activity (ENZ+) [2, 24]: 0%
- percentage of self-contained biological indicators positive for glucosidase enzyme activity (ENZ+) [2, 25]: 100%
- percentage of self-contained biological indicators positive for glucosidase enzyme activity (ENZ+) [2, 26]: 100%
- percentage of self-contained biological indicators positive for glucosidase enzyme activity (ENZ+) [2, 27]: 33%
- percentage of self-contained biological indicators positive for glucosidase enzyme activity (ENZ+) [2, 28]: 0%
- percentage of self-contained biological indicators positive for glucosidase enzyme activity (ENZ+) [2, 29]: 0%
- percentage of self-contained biological indicators positive for glucosidase enzyme activity (ENZ+) [2, 30]: 0%
- percentage of self-contained biological indicators positive for glucosidase enzyme activity (ENZ+) [2, 31]: 100%
- percentage of self-contained biological indicators positive for glucosidase enzyme activity (ENZ+) [2, 32]: 100%
- percentage of self-contained biological indicators positive for glucosidase enzyme activity (ENZ+) [2, 33]: 0%
- percentage of self-contained biological indicators positive for glucosidase enzyme activity (ENZ+) [2, 34]: 0%
- percentage of self-contained biological indicators positive for glucosidase enzyme activity (ENZ+) [2, 35]: 0%
- percentage of self-contained biological indicators positive for glucosidase enzyme activity (ENZ+) [2, 36]: 0%
- percentage of self-contained biological indicators positive for glucosidase enzyme activity (ENZ+) [2, 37]: 100%
- percentage of self-contained biological indicators positive for glucosidase enzyme activity (ENZ+) [2, 38]: 67%
- percentage of self-contained biological indicators positive for glucosidase enzyme activity (ENZ+) [2, 39]: 0%
- percentage of self-contained biological indicators positive for glucosidase enzyme activity (ENZ+) [2, 40]: 0%
- percentage of self-contained biological indicators positive for glucosidase enzyme activity (ENZ+) [2, 41]: 0%
- percentage of self-contained biological indicators positive for glucosidase enzyme activity (ENZ+) [2, 42]: 0%
